Columns and labels:
Type in all cases: in vivo
[1] = test system: sicklepod (Cassia obtusifolia, CASOB); experiment: Pre-emerge test, greenhouse herbicide activity screening; conditions: rated 14 days after application, 0 = no damage, 100 = complete death
Summary of the method: (§1)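 Compounds in acetone were track-sprayed at 15–1000 g ai/ha: pre-emergence onto soil sown the previous day, then top-watered to incorporate and later bottom-watered; post-emergence onto 2–3 leaf plants with 0.25% v/v surfactant, bottom-watered only. Ratings on a 0–100 phytotoxicity scale were taken at day 14.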

[2] = test system: large crabgrass (Digitaria sanguinalis, DIGSA); experiment: as above; conditions: rated 14 days after application, 0 = no damage, 100 = complete death
Summary of the method: as §1

[3] = test system: lambsquarters (Chenopodium album, CHEAL); experiment: as above; conditions: rated 14 days after application, 0 = no damage, 100 = complete death
Summary of the method: as §1

[4] = test system: velvetleaf (Abutilon theophrasti, ABUTH); experiment: as above; conditions: rated 14 days after application, 0 = no damage, 100 = complete death
Summary of the method: as §1

[5] = test system: common ragweed (Ambrosia artemisizfolia L., AMBEL); experiment: as above; conditions: rated 14 days after application, 0 = no damage, 100 = complete death
Summary of the method: as §1

[6] = test system: barnyardgrass (Echinochloa crus-galli, ECHCG); experiment: as above; conditions: rated 14 days after application, 0 = no damage, 100 = complete death
Summary of the method: as §1

[7] = test system: green foxtail (Setaria viridis, SETVI); experiment: as above; conditions: rated 14 days after application, 0 = no damage, 100 = complete death
Summary of the method: as §1

[8] = test system: johnsongrass (Sorghum halepense, SORHA); experiment: as above; conditions: rated 14 days after application, 0 = no damage, 100 = complete death
Summary of the method: as §1

[9] = test system: ivyleaf morningglory (Ipomoea hederacea, IPOHE); experiment: as above; conditions: rated 14 days after application, 0 = no damage, 100 = complete death
Summary of the method: as §1

[10] = test system: upland rice (Oryza sp., var. Tebonnet, RICE); experiment: Post-emerge test, crop safety; conditions: post-emerge, 14 days after application, rating scale 0-100
Summary of the method: (§2)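 Rating: 0–100 visual injury, 14 DAA. Application: acetone, 187 l/ha, 15–1000 g ai/ha, flat-fan track sprayer with nozzle 40–45 cm above soil or canopy. Post-emerge runs used 0.25% v/v surfactant on 2–3 leaf plants.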

[11] = test system: field corn (Zea mays L., var. Dekalb 535, CORN); experiment: Post-emerge test, crop safety; conditions: post-emerge, 14 days after application, rating scale 0-100
Summary of the method: as §2

[12] = test system: sicklepod (Cassia obtusifolia, CASOB); experiment: Post-emerge test, greenhouse herbicide activity screening; conditions: post-emerge, 14 days after application, rating scale 0-100
Summary of the method: (§3)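 Compounds in acetone were track-sprayed at 15-1000 g ai/ha (187 l/ha) on sandy loam pots: pre-emerge one day after seeding, post-emerge at 2-3 leaf stage with 0.25% v/v non-ionic surfactant. Phytotoxicity was rated 14 days later on a 0 (no damage) to 100 (complete death) scale.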

[13] = test system: large crabgrass (Digitaria sanguinalis, DIGSA); experiment: as above; conditions: post-emerge, 14 days after application, rating scale 0-100
Summary of the method: as §3

[14] = test system: lambsquarters (Chenopodium album, CHEAL); experiment: as above; conditions: post-emerge, 14 days after application, rating scale 0-100
Summary of the method: as §3

[15] = test system: velvetleaf (Abutilon theophrasti, ABUTH); experiment: as above; conditions: post-emerge, 14 days after application, rating scale 0-100
Summary of the method: as §3

[16] = test system: redroot pigweed (Amaranthus retroflexus, AMARE); experiment: as above; conditions: post-emerge, 14 days after application, rating scale 0-100
Summary of the method: as §3

[17] = test system: common ragweed (Ambrosia artemisizfolia L., AMBEL); experiment: as above; conditions: post-emerge, 14 days after application, rating scale 0-100
Summary of the method: as §3

[18] = test system: barnyardgrass (Echinochloa crus-galli, ECHCG); experiment: as above; conditions: post-emerge, 14 days after application, rating scale 0-100
Summary of the method: as §3

[19] = test system: green foxtail (Setaria viridis, SETVI); experiment: as above; conditions: post-emerge, 14 days after application, rating scale 0-100
Summary of the method: as §3

[20] = test system: johnsongrass (Sorghum halepense, SORHA); experiment: as above; conditions: post-emerge, 14 days after application, rating scale 0-100
Summary of the method: as §3

[21] = test system: ivyleaf morningglory (Ipomoea hederacea, IPOHE); experiment: as above; conditions: post-emerge, 14 days after application, rating scale 0-100
Summary of the method: as §3

[22] = test system: upland rice (Oryza sp., var. Tebonnet, RICE); experiment: Pre-emerge test, crop safety; conditions: rated 14 days after application, 0 = no damage, 100 = complete death
Summary of the method: (§4)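 Visual ratings on a 0-100 scale (0 no damage, 100 all plants dead) were taken at 14 days after treatment. Rates of 15-1000 g ai/ha in acetone, 187 l/ha, were sprayed onto soil one day after planting (pre-emerge) or onto 2-3 leaf plants with 0.25% v/v surfactant (post-emerge).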

[23] = test system: field corn (Zea mays L., var. Dekalb 535, CORN); experiment: Pre-emerge test, crop safety; conditions: rated 14 days after application, 0 = no damage, 100 = complete death
Summary of the method: as §4

[24] = test system: redroot pigweed (Amaranthus retroflexus, AMARE); experiment: Pre-emerge test, greenhouse herbicide activity screening; conditions: rated 14 days after application, 0 = no damage, 100 = complete death
Summary of the method: as §3

## COc1c(Cl)cc(F)c(-n2c(=O)cc(C(F)(F)F)n(C)c2=O)c1N(C(=O)c1ccc(Cl)nc1)C(=O)c1ccc(Cl)nc1 [2-100]
[1]; 63 g ai/ha
  Pre-emerge Herbicidal Activity, phytotoxicity rating (0-100), CASOB: 30
[1]; 250 g ai/ha
  Pre-emerge Herbicidal Activity, phytotoxicity rating (0-100), CASOB: 100
[2]; 63 g ai/ha
  Pre-emerge Herbicidal Activity, phytotoxicity rating (0-100), DIGSA: 90
[2]; 250 g ai/ha
  Pre-emerge Herbicidal Activity, phytotoxicity rating (0-100), DIGSA: 100
[3]; 63 g ai/ha
  Pre-emerge Herbicidal Activity, phytotoxicity rating (0-100), CHEAL: 100
[3]; 250 g ai/ha
  Pre-emerge Herbicidal Activity, phytotoxicity rating (0-100), CHEAL: 100
[4]; 63 g ai/ha
  Pre-emerge Herbicidal Activity, phytotoxicity rating (0-100), ABUTH: 100
[4]; 250 g ai/ha
  Pre-emerge Herbicidal Activity, phytotoxicity rating (0-100), ABUTH: 100
[5]; 63 g ai/ha
  Pre-emerge Herbicidal Activity, phytotoxicity rating (0-100), AMBEL: 90
[5]; 250 g ai/ha
  Pre-emerge Herbicidal Activity, phytotoxicity rating (0-100), AMBEL: 100
[6]; 63 g ai/ha
  Pre-emerge Herbicidal Activity, phytotoxicity rating (0-100), ECHCG: 70
[6]; 250 g ai/ha
  Pre-emerge Herbicidal Activity, phytotoxicity rating (0-100), ECHCG: 90
[7]; 63 g ai/ha
  Pre-emerge Herbicidal Activity, phytotoxicity rating (0-100), SETVI: 100
[7]; 250 g ai/ha
  Pre-emerge Herbicidal Activity, phytotoxicity rating (0-100), SETVI: 100
[8]; 63 g ai/ha
  Pre-emerge Herbicidal Activity, phytotoxicity rating (0-100), SORHA: 85
[8]; 250 g ai/ha
  Pre-emerge Herbicidal Activity, phytotoxicity rating (0-100), SORHA: 100
[9]; 63 g ai/ha
  Pre-emerge Herbicidal Activity, phytotoxicity rating (0-100), IPOHE: 100
[9]; 250 g ai/ha
  Pre-emerge Herbicidal Activity, phytotoxicity rating (0-100), IPOHE: 100
[10]; 63 g ai/ha
  phytotoxicity rating RICE: 45
[10]; 250 g ai/ha
  phytotoxicity rating RICE: 70
[11]; 63 g ai/ha
  phytotoxicity rating CORN: 15
[11]; 250 g ai/ha
  phytotoxicity rating CORN: 80
[12]; 63 g ai/ha
  phytotoxicity rating CASOB: 70
[12]; 250 g ai/ha
  phytotoxicity rating CASOB: 60
[13]; 63 g ai/ha
  phytotoxicity rating DIGSA: 0
[13]; 250 g ai/ha
  phytotoxicity rating DIGSA: 20
[14]; 63 g ai/ha
  phytotoxicity rating CHEAL: 80
[14]; 250 g ai/ha
  phytotoxicity rating CHEAL: 80
[15]; 63 g ai/ha
  phytotoxicity rating ABUTH: 100
[15]; 250 g ai/ha
  phytotoxicity rating ABUTH: 100
[16]; 63 g ai/ha
  phytotoxicity rating AMARE: 80
[16]; 250 g ai/ha
  phytotoxicity rating AMARE: 100
[17]; 63 g ai/ha
  phytotoxicity rating AMBEL: 70
[17]; 250 g ai/ha
  phytotoxicity rating AMBEL: 90
[18]; 63 g ai/ha
  phytotoxicity rating ECHCG: 0
[18]; 250 g ai/ha
  phytotoxicity rating ECHCG: 30
[19]; 63 g ai/ha
  phytotoxicity rating SETVI: 60
[19]; 250 g ai/ha
  phytotoxicity rating SETVI: 70
[20]; 63 g ai/ha
  phytotoxicity rating SORHA: 0
[20]; 250 g ai/ha
  phytotoxicity rating SORHA: 60
[21]; 63 g ai/ha
  phytotoxicity rating IPOHE: 100
[21]; 250 g ai/ha
  phytotoxicity rating IPOHE: 100
[22]; 63 g ai/ha
  Pre-emerge phytotoxicity rating (0-100), crop damage, RICE: 75
[22]; 250 g ai/ha
  Pre-emerge phytotoxicity rating (0-100), crop damage, RICE: 90
[23]; 63 g ai/ha
  Pre-emerge phytotoxicity rating (0-100), crop damage, CORN: 45
[23]; 250 g ai/ha
  Pre-emerge phytotoxicity rating (0-100), crop damage, CORN: 95
[24]; 63 g ai/ha
  Pre-emerge Herbicidal Activity, phytotoxicity rating (0-100), AMARE: 100
[24]; 250 g ai/ha
  Pre-emerge Herbicidal Activity, phytotoxicity rating (0-100), AMARE: 100

From patent US6355799B1, “Substituted benzene compounds, process for their preparation, and herbicidal and defoliant compositions containing them” (ISK Americas Incorporated, priority 1997, dated 2002)
